Test results from patent US4788178A, “Use of gonadoliberin and gonadoliberin agonists for the treatment of climacteric complaints” (Hoechst Aktiengesellschaft, priority 1984, dated 1988).

What was measured:
parathyroid hormone [1] = assay: Regulating action of small doses of buserelin on parathyroid hormone in the plasma of rats; assay type: in vivo; conditions: young female rats with a high level of parathyroid hormone
Excerpt: Increased levels of parathyroid hormone are found in bone marrow in cases of osteoporosis (Klin. Wochenschr. 62, 129-132, 1984); parathyroid hormone has an osteolytic effect. In young female rats with a high level of parathyroid hormone, small doses of the gonadoliberin agonist buserelin reduced parathyroid hormone in the plasma, although a parathyroid hormone level which has been reduced by infusion of calcium is raised by similar doses of buserelin (see German Patent Application No. P 33 32 329.1). It is possible that this regulating action of buserelin on parathyroid hormone plays a part in the treatment of ostalgia and osteoporosis.

parathyroid hormone [2] = conditions: after infusion of calcium; similar small doses; cited from earlier work
parathyroid hormone [3] = assay: Action of buserelin to lower parathyroid hormone in blood serum of rats; assay type: in vivo, female Wistar rats
Method: 4 groups each containing 5 female Wistar rats were treated with placebo or three different doses (1 ng/kg, 5 ng/kg and 50 ng/kg) of buserelin. An initial blood sample was taken from all animals (initial value). Thereafter, the animals were given an injection of buserelin in physiological sodium chloride solution with the addition of 0.25% Haemaccel^R, and the placebo group was given the same amount of physiological sodium chloride solution with the addition of 0.25% Haemaccel^R. Blood samples were taken after 90 minutes and 240 minutes. The blood serum was investigated for parathyroid hormone. […] Explanation of the FIG. 1: The time course of the PTH level after i.v. administration of 1 ng/kg buserelin (curve 1), 5 ng/kg (curve 2) and 50 ng/kg (curve 3) is shown. […] All measurements are indicated with standard deviation (n=5).

## CCNC(=O)[C@@H]1CCCN1C(=O)[C@H](CCCNC(=N)N)NC(=O)[C@H](CC(C)C)NC(=O)[C@@H](COC(C)(C)C)NC(=O)[C@H](Cc1ccc(O)cc1)NC(=O)[C@H](CO)NC(=O)[C@H](Cc1c[nH]c2ccccc12)NC(=O)[C@H](Cc1cnc[nH]1)NC(=O)[C@@H]1CCC(=O)N1 [buserelin, [D-Ser(Bu^t)^6]-gonadoliberin-(1-9)-nonapeptide ethylamide]
Parathyroid hormone [1]
  parathyroid hormone in the plasma: reduced
Parathyroid hormone [2]
  parathyroid hormone level previously reduced by infusion of calcium: raised
Parathyroid hormone [3]; 1, 5 and 50 ng/kg i.v., 90 minutes
  dose dependence of the parathyroid hormone lowering effect: best effect being observed at the low doses
Parathyroid hormone [3]; i.v. 1 ng/kg, 5 ng/kg and 50 ng/kg buserelin, female Wistar rats, 90 minutes, n=5
  level of parathyroid hormone in blood serum after 90 minutes: decreased
Parathyroid hormone [3]; i.v. 1, 5 and 50 ng/kg, 240 minutes
  level of parathyroid hormone in blood serum after 240 minutes: initial value had been regained
